Key:
Format in all cases: cell-based, human
[1] = tested on: pS2, cyclin D1, c-Myc, SP-1, E2F1, PgR; experiment: Quantitative RT-PCR of ERα target genes, MCF-7
SK-BR-3 cells = experiment: Proliferation of ERα negative SK-BR-3 cells; details: 24 hours and 48 hours
Description: FIG. 40 is a diagram illustrating the results of MTT assay by which proliferation suppression effect of the ERAP1-peptide in ERα negative breast cancer cell lines, SK-BR-3 cells was evaluated. SK-BR-3 cells were treated with the ERAP1-peptide (Peptide) or the ERAP1-scramble peptide (scrPeptide) for 24 hours or for 48 hours.
Cell proliferation assay was performed using Cell-Counting Kit-8 (CCK-8, Dojindo, Kumaamoto, Japan). The cells were harvested, and plated in 2×10^4 cells/well on a 48-well plate, and maintained in a humidified incubator (37° C.). 10 fold-diluted CCK-8 solution was added at indicated time points and the cells were incubated for 1 hour. Then, the absorbance at 450 nm was measured and the number of living cells was calculated.

[2] = tested on: pS2, cyclin D1, c-Myc, SP-1, E2F1, PgR; experiment: Quantitative RT-PCR of ERα target genes, KPL-3C; details: 24 hours
[3] = tested on: estrogen-dependent gene expression in MCF-7 cells; experiment: Microarray transcriptome analysis, MCF-7; details: for Fold change: E2 alone/E2 + peptide
Description: MCF-7 cells were treated with 10 μM ERAP1-peptide (Peptide) and the ERAP1-scramble peptide (scrPeptide). Then, immediately, the cells were stimulated with 10 nM E2 for 1 hour. Subsequently, the obtained cell lysate solution was digested with trypsin and subjected to 2DICAL. […] MCF-7 cells were treated with 10 μM ERAP1-peptide. Then, immediately, the cells were stimulated with 10 nM E2 for 5, 10 and 15 hours. Then, RNA extraction and then Cy3-cRNA synthesis were performed, and the Cy3-cRNA was subjected to the microarray. The data were statistically analyzed by GeneSpring software, and the ratio to the value at 0 hour was calculated. **P<0.01.
MCF-7 cells were treated with 10 μM ERAP1-peptide. Then, immediately the cells were stimulated with 10 nM E2. Then, RNA extraction was performed. Cy3 labeled cRNA was synthesized with Low Input Quick Amp Labeling Kit (Agilent Technologies, Loveland, Colo., USA) and hybridized with a custom microarray at 65° C. for 17 hours. The microarray was washed. Then, the product hybridized was measured with a microarray scanner (Agilent). The results thereof were digitized with Future Extraction software (Agilent). The data were statistically analyzed with GeneSpring software (Agilent), and the ratio to the value at 0 hour was calculated.

## CSCC[C@H](NC(=O)[C@H](CCC(N)=O)NC(=O)[C@H](CCCNC(=N)N)NC(=O)[C@H](CCCNC(=N)N)NC(=O)[C@H](CCCNC(=N)N)NC(=O)[C@H](CCCNC(=N)N)NC(=O)[C@H](CCCNC(=N)N)NC(=O)[C@H](CCCNC(=N)N)NC(=O)[C@H](CCCNC(=N)N)NC(=O)[C@H](CCCNC(=N)N)NC(=O)[C@H](CCCNC(=N)N)NC(=O)[C@H](CCCNC(=N)N)NC(=O)[C@@H](N)CCCNC(=N)N)C(=O)N[C@@H](CC(C)C)C(=O)N[C@@H](CO)C(=O)N[C@@H](CC(=O)O)C(=O)N[C@@H](CC(C)C)C(=O)N[C@H](C(=O)N[C@@H](CC(C)C)C(=O)N[C@@H](CCC(N)=O)C(=O)N[C@@H](CC(C)C)C(=O)N[C@@H](CCCNC(=N)N)C(=O)N[C@@H](CCC(N)=O)C(=O)N[C@@H](CCCNC(=N)N)C(=O)O)[C@@H](C)O [ERAP1-peptide]
[1]; after 24 hours
  expression of ERα target genes: expression of any of the genes was remarkably suppressed
[1]; after addition of the peptide
  time at which significant expression suppression effect was first recognized: 6 h
SK-BR-3 cells
  cell proliferation: had suppression effect on the cell proliferation in dose-dependent manner both at 24 hours and 48 hours
[2]
  expression of ERα target genes: remarkable suppression for expression of all of these genes
[3]; 10 μM, 10 nM E2, versus E2
  change of mRNA expressions: decreased significantly and genome-widely
[3]; gene ADCY1
  Fold change: 5.92
[3]; gene AKR1C1
  Fold change: 7.79
[3]; gene AKR1C3
  Fold change: 6.37
[3]; gene AKR1C4
  Fold change: 6.00
[3]; gene ANKS6
  Fold change: 9.00
[3]; gene ARHGAP36
  Fold change: 7.08
[3]; gene BASP1
  Fold change: 8.01
[3]; gene BCAS3
  Fold change: 5.92
[3]; gene BMP5
  Fold change: 7.72
[3]; gene BMP7
  Fold change: 8.40
[3]; gene BTG3
  Fold change: 9.06
[3]; gene C1orf59
  Fold change: 8.43
[3]; gene C6orf150
  Fold change: 5.95
[3]; gene C13orf18
  Fold change: 5.79
[3]; gene CA2
  Fold change: 9.87
[3]; gene CALB2
  Fold change: 6.05
[3]; gene CALHM2
  Fold change: 8.63
[3]; gene CALML5
  Fold change: 6.39
[3]; gene CAV1
  Fold change: 7.44
[3]; gene CAV2
  Fold change: 6.63
[3]; gene CCDC83
  Fold change: 6.76
[3]; gene CEACAM5
  Fold change: 6.84
[3]; gene CMTM3
  Fold change: 7.06
[3]; gene CNKSR3
  Fold change: 6.27
[3]; gene CTNND2
  Fold change: 6.83
[3]; gene CXCR7
  Fold change: 10.15
[3]; gene CYBA
  Fold change: 9.51
[3]; gene DCLK1
  Fold change: 7.84
[3]; gene DDX43
  Fold change: 8.53
[3]; gene DPYSL5
  Fold change: 5.76
[3]; gene ECHDC1
  Fold change: 7.73
[3]; gene ELOVL2
  Fold change: 7.14
[3]; gene FABP5
  Fold change: 6.38
[3]; gene FAM189A2
  Fold change: 6.33
[3]; gene FZD6
  Fold change: 7.54
[3]; gene GPER
  Fold change: 7.51
[3]; gene GSTT1
  Fold change: 7.93
[3]; gene HAR1B
  Fold change: 7.11
[3]; gene HMCN1
  Fold change: 7.54
[3]; gene HPDL
  Fold change: 7.68
[3]; gene KCNJ3
  Fold change: 8.31
[3]; gene KCNJ8
  Fold change: 6.44
[3]; gene KCNQ1OT1
  Fold change: 6.60
[3]; gene KIF1A
  Fold change: 7.12
[3]; gene KLK6
  Fold change: 5.98
[3]; gene KLK11
  Fold change: 8.08
[3]; gene LOC389332
  Fold change: 6.52
[3]; gene LOC654433
  Fold change: 6.72
[3]; gene LOC732272
  Fold change: 7.09
[3]; gene LOC100508679
  Fold change: 9.85
[3]; gene LPIN2
  Fold change: 6.27
[3]; gene LRRC10B
  Fold change: 7.17
[3]; gene LXN
  Fold change: 11.09
[3]; gene LYPD1
  Fold change: 6.66
[3]; gene MAGED4B
  Fold change: 6.80
[3]; gene MALL
  Fold change: 6.05
[3]; gene MARCKS
  Fold change: 6.99
[3]; gene ME1
  Fold change: 6.91
[3]; gene MEST
  Fold change: 8.84
[3]; gene MUCL1
  Fold change: 6.13
[3]; gene NCRNA00052
  Fold change: 7.27
[3]; gene NUP210L
  Fold change: 7.84
[3]; gene OOEP
  Fold change: 6.57
[3]; gene PCDH10
  Fold change: 5.78
[3]; gene PDGFRL
  Fold change: 5.77
[3]; gene PM20D2
  Fold change: 6.56
[3]; gene PMP22
  Fold change: 5.93
[3]; gene POTEB
  Fold change: 7.70
[3]; gene POTED
  Fold change: 6.82
[3]; gene PPARG
  Fold change: 7.30
[3]; gene RAMP1
  Fold change: 5.82
[3]; gene RAMP3
  Fold change: 7.25
[3]; gene RGS22
  Fold change: 7.22
[3]; gene RP86KA3
  Fold change: 7.84
[3]; gene S100A14
  Fold change: 6.73
[3]; gene SALL4
  Fold change: 6.60
[3]; gene SDR42E1
  Fold change: 8.01
[3]; gene SERPINA5
  Fold change: 5.87
[3]; gene SLC6A14
  Fold change: 8.73
[3]; gene SLC7A2
  Fold change: 8.32
[3]; gene SLC27A6
  Fold change: 8.00
[3]; gene SNX7
  Fold change: 7.48
[3]; gene SOX3
  Fold change: 6.52
[3]; gene SPANXA1
  Fold change: 6.68
[3]; gene SPANXB2
  Fold change: 6.55
[3]; gene ST8SIA4
  Fold change: 6.99
[3]; gene TFPI2
  Fold change: 6.82
[3]; gene THBD
  Fold change: 5.97
[3]; gene TLR2
  Fold change: 5.74
[3]; gene TMEM26
  Fold change: 6.66
[3]; gene TMEM64
  Fold change: 6.46
[3]; gene TMEM150C
  Fold change: 7.57
[3]; gene TOX2
  Fold change: 6.29
[3]; gene TPM4
  Fold change: 7.60
[3]; gene TSPYL5
  Fold change: 9.50
[3]; gene UGT1A6
  Fold change: 5.78
[3]; gene UGT1A8
  Fold change: 6.60
[3]; gene WISP2
  Fold change: 6.73
[3]; gene XIST
  Fold change: 8.53
[3]; gene ZNF618
  Fold change: 6.39

— patent US9725490B2, “ERAP1-derived peptide and use thereof” (TOKUSHIMA UNIVERSITY, priority 2011, dated 2017)
